Columns and labels:
BRAF G466V = molecular target: T1, BRAF G466V (Homo sapiens, UniProt P15056, G466V); assay: Cellular assay of target protein degradation, T-Rex 293 cells stably transfected with HA-BRAF G466V (HA immunofluorescence, high content imaging); type: cell-based; conditions: T-Rex 293 HA-BRAF G466V; for DC50: half maximal degradation, read-out: BRaf G466V DC50; for Dmax: maximum degradation observed
T1 construct: expressed in transfected cells
Experimental: Protocol for a cellular assay of target protein degradation (T-Rex 293 cells). T-Rex 293 cells were purchased from Invitrogen (#R71007), and stably transfected with a pcDNA4/TO_HA-BRAF G466V construct, using 400 ug Zeocin for selection. G466V cells are plated in Dulbecco's Modified Eagle Medium (DMEM; Gibco #11965118) containing 10% fetal bovine serum (FBS; Gibco #16000044) and 0.75 ng/mL doxycycline (Selleckchem #4163) at a density of 5,000 cells/well in 50 μl on poly-D-lysine (PDL) coated, black clear bottom 96-well plates (Corning #354640) and incubated for 24 hours at 37° C. with 5% CO2. The following day 50 ul of tested compound was added at 2x concentration in DMEM with a final concentration ranging from 30 nM to 3 pM in 0.1% dimethylsulfoxide (DMSO), and incubated for 24 hours at 37° C. with 5% CO2. At the end of the experimental treatment, the media was flicked off and cells washed once with phosphate-buffered saline (PBS)++ (PBS with CaCl and MgCl) and gently replacing with 200 μl PBS++ per well. The PBS++ was removed and 50 uL 4% paraformaldehyde (PFA; EMS #15710) in PBS++ was added, and incubate at room temperature for 15 minutes. Cells were washed once with PBS++ and 50 uL 0.1% Triton X-100 (Fisher #BP151-500) in PBS++ was added. Plate was incubate for 5 minutes at room temperature. Cells were was once with PBS++. Cells were blocked with 100 uL Licor blocking buffer (Licor #927-50000) for 1 hour at room temperature. Next, 50 uL of HA antibody (CST #3724) at 1:1000 in Licor blocking buffer was added, and the plate incubate overnight at 4° C. The plates were parafilmed to prevent evaporation. Plate was washed three times with 200 uL PBS++. Fifty microliters of HCS secondary antibody solution [1:1000 Hoechst (Invitrogen #H3570), 1:1000 phalloidin (Invitrogen #A22287) and 1:5000 Alexa fluor (Invitrogen #A11008)] was added and incubated for 1 hour. Plate was wash three times with 200 uL PBS++, and imaged on a high content reader (ImageXpress Micro XLS, Molecular Devices).
(§1) The concentration of exemplary compound that leads to half maximal degradation (DC50) as well as the maximum degradation observed (Dmax, conventionally expressed as a percentage of control), which are below in Table 2 for the exemplary compounds of Table 1.

BRAF V600E = molecular target: T2, BRAF V600E (Homo sapiens, UniProt P15056, V600E); assay: Cellular assay of target protein degradation, T-Rex 293 cells stably transfected with HA-BRAF_V600E (HA immunofluorescence, high content imaging); type: cell-based; conditions: T-Rex 293 HA-BRAF V600E; for DC50: half maximal degradation, read-out: BRaf V600E DC50; for Dmax: maximum degradation observed
T2 construct: expressed in transfected cells
Experimental: Protocol for a cellular assay of target protein degradation (T-Rex 293 cells). T-Rex 293 cells were purchased from Invitrogen (#R71007), and stably transfected with a pcDNA4/TO_HA-BRAF_V600E construct, using 400 ug Zeocin for selection. V600e cells are plated in Dulbecco's Modified Eagle Medium (DMEM; Gibco #11965118) containing 10% fetal bovine serum (FBS; Gibco #16000044) and 1 ng/mL doxycycline (Selleckchem #4163) at a density of 5,000 cells/well in 50 μl on poly-D-lysine (PDL) coated, black clear bottom 96-well plates (Corning #354640) and incubated for 24 hours at 37° C. with 5% C02. The following day 50 ul of tested compound was added at 2x concentration in DMEM with a final concentration ranging from 1 μM to 0.1 nM in 0.1% dimethylsulfoxide (DMSO), and incubated for 24 hours at 37° C. with 5% CO2. At the end of the experimental treatment, the media was flicked off and cells washed once with phosphate-buffered saline (PBS)++ (PBS with CaCl and MgCl) and gently replacing with 200 μl PBS++ per well. The PBS++ was removed and 50 uL 4% paraformaldehyde (PFA; EMS #15710) in PBS++ was added, and incubate at room temperature for 15 minutes. Cells were washed once with PBS++ and 50 uL 0.1% Triton X-100 (Fisher #BP151-500) in PBS++ was added. Plate was incubate for 5 minutes at room temperature. Cells were was once with PBS++. Cells were blocked with 100 uL Licor blocking buffer (Licor #927-50000) for 1 hour at room temperature. Next, 50 uL of HA antibody (CST #3724) at 1:1000 in Licor blocking buffer was added, and the plate incubate overnight at 4° C. The plates were parafilmed to prevent evaporation. Plate was washed three times with 200 uL PBS++. Fifty microliters of HCS secondary antibody solution [1:1000 Hoechst (Invitrogen #H3570), 1:1000 phalloidin (Invitrogen #A22287) and 1:5000 Alexa fluor (Invitrogen #A11008)] was added and incubated for 1 hour. Plate was wash three times with 200 uL PBS++, and imaged on a high content reader (ImageXpress Micro XLS, Molecular Devices).
as §1

T2 sequence (P15056 whole entry V600E): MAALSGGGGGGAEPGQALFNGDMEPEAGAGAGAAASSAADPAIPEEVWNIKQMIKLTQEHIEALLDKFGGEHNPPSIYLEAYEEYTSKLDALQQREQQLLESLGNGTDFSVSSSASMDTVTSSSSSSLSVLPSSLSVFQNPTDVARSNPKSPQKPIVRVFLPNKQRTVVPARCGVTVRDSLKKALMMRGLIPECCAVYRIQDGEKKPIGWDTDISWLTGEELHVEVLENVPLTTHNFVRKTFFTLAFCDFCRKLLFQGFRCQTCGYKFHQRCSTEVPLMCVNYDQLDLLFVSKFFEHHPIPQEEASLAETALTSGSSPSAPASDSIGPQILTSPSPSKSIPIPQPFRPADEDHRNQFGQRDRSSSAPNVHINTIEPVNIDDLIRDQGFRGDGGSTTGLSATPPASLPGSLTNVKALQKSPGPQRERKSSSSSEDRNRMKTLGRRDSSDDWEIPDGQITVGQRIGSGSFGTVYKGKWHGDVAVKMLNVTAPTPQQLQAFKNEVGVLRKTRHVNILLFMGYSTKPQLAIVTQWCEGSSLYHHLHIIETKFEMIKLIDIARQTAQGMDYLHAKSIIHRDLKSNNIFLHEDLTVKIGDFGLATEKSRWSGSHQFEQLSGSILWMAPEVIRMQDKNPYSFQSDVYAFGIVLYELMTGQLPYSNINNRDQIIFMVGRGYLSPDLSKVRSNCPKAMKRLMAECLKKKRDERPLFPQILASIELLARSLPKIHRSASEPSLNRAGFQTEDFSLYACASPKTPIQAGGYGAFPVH
T1 sequence (P15056 whole entry G466V): as the sequence (P15056 whole entry V600E) above, with G466V, E600V counted along it

`COc1cc([C@@H](O)CCN2CCN(c3ccc(-c4cnc5[nH]cc(C(=O)c6c(F)ccc(NS(=O)(=O)N7CC[C@@H](F)C7)c6F)c5c4)cc3)CC2)cc2c1C(=O)N([C@H]1CCC(=O)NC1=O)C2` (stereo in doubt) [Compound 295, (3R)-N-{3-[5-(4-{4-[(3S)-3-{2-[(3S)-2,6-dioxopiperidin-3-yl]-7-methoxy-1-oxo-2,3-dihydro-1H-isoindol-5-yl}-3-hydroxypropyl]piperazin-1-yl}phenyl)-1-pyrrolo[2,3-b]pyridine-3-carbonyl]-2,4-difluorophenyl}-3-fluoropyrrolidine-1-sulfonamide] showed a DC50 (BRAF G466V) of 1 to 10 nM, a Dmax (BRAF G466V) of 35 to 70% and a DC50 (BRAF V600E) of 50 to 500 nM. It also gave a Dmax (BRAF V600E) of 35 to 70%.
`O=C1CCC(N2Cc3cc(N4CC5(CC(Oc6ccc(-c7cnc8[nH]cc(C(=O)c9c(F)ccc(NS(=O)(=O)N%10CC[C@@H](F)C%10)c9F)c8c7)cc6)C5)C4)ccc3C2=O)C(=O)N1` (stereo partly drawn) [Compound 1, (3R)-N-(3-{5-[4-({2-[2-(2,6-dioxopiperidin-3-yl)-1-oxo-2,3-dihydro-1H-isoindol-5-yl]-2-azaspiro[3.3]heptan-6-yl}oxy)phenyl]-1H-pyrrolo[2,3-b]pyridine-3-carbonyl}-2,4-difluorophenyl)-3-fluoropyrrolidine-1-sulfonamide] showed a DC50 (BRAF G466V) of 1 to 10 nM, a Dmax (BRAF G466V) of 35 to 70% and a DC50 (BRAF V600E) of 5 to 50 nM. It also gave a Dmax (BRAF V600E) of 35 to 70%.
In the case of `C[C@@]12CN(CC3CCN(c4ccc5c(c4)CN(C4CCC(=O)NC4=O)C5=O)CC3)C[C@]1(C)CN(c1ccc(-c3cnc4[nH]cc(C(=O)c5c(F)ccc(NS(=O)(=O)N6CC[C@@H](F)C6)c5F)c4c3)cc1)C2` (stereo partly drawn) [Compound 2, (3R)-N-[3-(5-{4-[(3aR,6aS)-5-({1-[2-(2,6-dioxopiperidin-3-yl)-1-oxo-2,3-dihydro-1H-isoindol-5-yl]piperidin-4-yl}methyl)-3a,6a-dimethyl-octahydropyrrolo[3,4-c]pyrrol-2-yl]phenyl}-1H-pyrrolo[2,3-b]pyridine-3-carbonyl)-2,4-difluorophenyl]-3-fluoropyrrolidine-1-sulfonamide], the DC50 (BRAF G466V) is reported as 10 to 30 nM, the Dmax (BRAF G466V) is reported as 35 to 70% and the DC50 (BRAF V600E) is reported as 5 to 50 nM. For the same compound, the Dmax (BRAF V600E) was 35 to 70%.
With `O=C1CCC(N2Cc3cc(N4CCC(CN5C[C@H]6CCN(c7ccc(-c8cnc9[nH]cc(C(=O)c%10c(F)ccc(NS(=O)(=O)N%11CC[C@@H](F)C%11)c%10F)c9c8)cc7)C[C@H]6C5)CC4)ccc3C2=O)C(=O)N1` (stereo partly drawn) [Compound 3, (3R)-N-[3-(5-{4-[(3aR,7aS)-2-({1-[2-(2,6-dioxopiperidin-3-yl)-1-oxo-2,3-dihydro-1H-isoindol-5-yl)piperidin-4-yl}methyl)-octahydro-1H-pyrrolo[3,4-c]pyridin-5-yl]phenyl}-1H-pyrrolo[2,3-b]pyridine-3-carbonyl)-2,4-difluorophenyl]-3-fluoropyrrolidine-1-sulfonamide] the DC50 (BRAF G466V) was 1 to 10 nM, the Dmax (BRAF G466V) was over 70% and the DC50 (BRAF V600E) was 5 to 50 nM. The Dmax (BRAF V600E) was 35 to 70%.
`O=C1CCC(N2Cc3cc(N4CC5(CCN(CC#Cc6ccc(-c7cnc8[nH]cc(C(=O)c9c(F)ccc(NS(=O)(=O)N%10CC[C@@H](F)C%10)c9F)c8c7)cc6)C5)C4)ccc3C2=O)C(=O)N1` (stereo partly drawn) [Compound 4, (3R)-N-(3-{5-[4-(3-{2-[2-(2,6-dioxopiperidin-3-yl)-1-oxo-2,3-dihydro-1H-isoindol-5-yl]-2,6-diazaspiro[3.4]octan-6-yl}prop-1-yn-1-yl)phenyl]-1H-pyrrolo [2,3-b]pyridine-3-carbonyl}-2,4-difluorophenyl)-3-fluoropyrrolidine-1-sulfonamide] was tested, and the DC50 (BRAF G466V) was 1 to 10 nM, the Dmax (BRAF G466V) was 35 to 70% and the DC50 (BRAF V600E) was 50 to 500 nM. It also gave a Dmax (BRAF V600E) of under 35%.
With `O=C1CCC(N2Cc3cc(N4CC(N5C[C@H]6C[C@@H]5CN6c5ccc(-c6cnc7[nH]cc(C(=O)c8c(F)ccc(NS(=O)(=O)N9CC[C@@H](F)C9)c8F)c7c6)cc5)C4)ccc3C2=O)C(=O)N1` (stereo partly drawn) [Compound 5, (3R)-N-[3-(5-{4-[(1R,4R)-5-{1-[2-(2,6-dioxopiperidin-3-yl)-1-oxo-2,3-dihydro-1H-isoindol-5-yl]azetidin-3-yl}-2,5-diazabicyclo[2.2.1]heptan-2-yl]phenyl}-1H-pyrrolo[2,3-b]pyridine-3-carbonyl)-2,4-difluorophenyl]-3-fluoropyrrolidine-1-sulfonamide] the DC50 (BRAF G466V) was 1 to 10 nM, the Dmax (BRAF G466V) was 35 to 70% and the DC50 (BRAF V600E) was over 500 nM.
Work on `COc1cc(N2CCC(CN3CCC4(CC3)CCN(c3ccc(-c5cnc6[nH]cc(C(=O)c7c(F)ccc(NS(=O)(=O)N8CC[C@@H](F)C8)c7F)c6c5)cc3)CC4)CC2)cc2c1C(=O)N(C1CCC(=O)NC1=O)C2` (stereo partly drawn) [Compound 6, (3R)-N-[3-(5-{4-[9-({1-[2-(2,6-dioxopiperidin-3-yl)-7-methoxy-1-oxo-2,3-dihydro-1H-isoindol-5-yl]piperidin-4-yl}methyl)-3,9-diazaspiro[5.5]undecan-3-yl]phenyl}-1H-pyrrolo[2,3-b]pyridine-3-carbonyl)-2,4-difluorophenyl]-3-fluoropyrrolidine-1-sulfonamide] yielded a DC50 (BRAF G466V) of 1 to 10 nM, a Dmax (BRAF G466V) of 35 to 70% and a DC50 (BRAF V600E) of under 5 nM. The Dmax (BRAF V600E) was 35 to 70%.
`O=C1CCC(N2Cc3cc(N4CC(CN5CCC(c6ccc(-c7cnc8[nH]cc(C(=O)c9c(F)ccc(NS(=O)(=O)N%10CC[C@@H](F)C%10)c9F)c8c7)cc6)CC5)C4)ccc3C2=O)C(=O)N1` (stereo partly drawn) [Compound 7, (3R)-N-[3-(5-{4-[1-({1-[2-(2,6-dioxopiperidin-3-yl)-1-oxo-2,3-dihydro-1H-isoindol-5-yl]azetidin-3-yl}methyl)piperidin-4-yl]phenyl}-1H-pyrrolo[2,3-b]pyridine-3-carbonyl)-2,4-difluorophenyl]-3-fluoropyrrolidine-1-sulfonamide] was tested, and the DC50 (BRAF G466V) was 1 to 10 nM, the Dmax (BRAF G466V) was over 70% and the DC50 (BRAF V600E) was 5 to 50 nM. It also gave a Dmax (BRAF V600E) of 35 to 70%.
Compound `O=C1CCC(N2Cc3cc(N4CCC(CN5CCC6(CCN(c7ncc(-c8cnc9[nH]cc(C(=O)c%10c(F)ccc(NS(=O)(=O)N%11CC[C@@H](F)C%11)c%10F)c9c8)cn7)CC6)C5)CC4)ccc3C2=O)C(=O)N1` (stereo partly drawn) [Compound 96, (3R)-N-[3-(5-{2-[2-({1-[2-(2,6-dioxopiperidin-3-yl)-1-oxo-2,3-dihydro-1H-isoindol-5-yl]piperidin-4-yl}methyl)-2,8-diazaspiro[4.5]decan-8-yl]pyrimidin-5-yl}-1H-pyrrolo[2,3-b]pyridine-3-carbonyl)-2,4-difluorophenyl]-3-fluoropyrrolidine-1-sulfonamide] has a DC50 (BRAF V600E) of under 5 nM and a Dmax (BRAF V600E) of under 35%.
